Experimental data: patent US7381707B2, “Treatment of dry eye” (Johnson & Johnson Consumer Companies, Inc., priority 2005, dated 2008)
Entries after “also recorded” stand apart in the source; their conditions may differ. No end group written: not given here.

Tests used:
PAR-2 = target: T1, PAR-2 (Rattus norvegicus, UniProt Q63645); conditions: rats; Nishikawa H et al, J Pharmacol Exp Ther. 2005; cited from earlier work
T1 construct: host or cells: rats in vivo (endogenous receptor)
T1 sequence (Q63645 26-397): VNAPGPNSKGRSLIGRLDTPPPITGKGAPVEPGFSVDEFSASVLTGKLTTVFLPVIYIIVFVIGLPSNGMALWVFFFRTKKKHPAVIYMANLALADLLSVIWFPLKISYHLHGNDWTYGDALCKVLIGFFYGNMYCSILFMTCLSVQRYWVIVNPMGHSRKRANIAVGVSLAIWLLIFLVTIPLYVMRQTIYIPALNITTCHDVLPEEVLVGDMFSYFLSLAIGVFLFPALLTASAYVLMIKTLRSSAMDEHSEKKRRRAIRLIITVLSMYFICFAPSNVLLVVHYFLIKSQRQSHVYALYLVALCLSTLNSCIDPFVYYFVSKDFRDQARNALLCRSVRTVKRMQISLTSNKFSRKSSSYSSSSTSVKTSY

[1] = system: Human primary neonatal keratinocytes; experiment: Secretion of inflammatory mediators by primary keratinocytes (ELISA / Beadlyte); type: cell-based; conditions: 50 μM, 24 hours; for Fold change in the secretion of inflammatory mediators: IL-6 / Fold change in the secretion of inflammatory mediators: IL-8 / Fold change in the secretion of inflammatory mediators: PGE2 / Fold change in the secretion of inflammatory mediators: PGF2α: cell media; for Fold change in the secretion of inflammatory mediators: IL-6 / Fold change in the secretion of inflammatory mediators: IL-8: Beadlyte; for Fold change in the secretion of inflammatory mediators: PGE2 / Fold change in the secretion of inflammatory mediators: PGF2α: ELISA
Protocol: Human primary neonatal keratinocytes were purchased from Cascade Biologics (Portland, Oreg.). Cells were cultured in Media 154 supplemented with human keratinocytes growth supplement (Cascade Biologics) and were maintained at <80% confluency. Cells were plated at 6×10^4 per well in 24 well plate and allowed to attach to the well overnight with 5% CO2. Cells were then treated with LIGR (50 μM), SLIGRL (50 μM), the control, scrambled peptide ISLLRG (SEQ.ID.NO.18) (50 μM) or left untreated. Each treatment was done in triplicates. 24 hours later, cell media were collected and examined for the expression and secretion of the inflammatory mediators PGE2, PGF2α, IL-8 and IL-6. PGE2 and PGF2α, using ELISA kits (Cayman Chemicals, Ann Arbor, Mich.) according to manufacturer's instructions. IL-8 and IL-6 levels were detected using Beadlyte Human Multi-cytokine Detection System (Upstate Cell Signaling Solutions, Lake Placid, N.Y.) according to manufacturer's instructions. The experiment was repeated 4 times with different lots of primary keratinocytes.

Mucin 1 (MUC1) = experiment: MUC1 gene expression (RT-PCR) in human corneal epithelial equivalents; type: cell-based; conditions: 200 μM; for Fold Change (MUC1:GAPDH): treatment refreshed every day, harvested end of 6th day, band density normalized against GAPDH
Protocol: Human corneal equivalents were purchased from SkinEthic Laboratories (Nice, France). Equivalents were allowed to equilibrate in SkinEthic growth medium overnight at 5% CO2, and were then treated with SLIGRL (SEQ.ID.NO.17) (200 μM), LIGR (SEQ.ID.NO.1) (200 μM) or Phosphate buffered saline (PBS) as a control. Treatment was refreshed everyday. At the end of the 6th day, equivalent samples were harvested. Total RNA was extracted from the equivalents using RNAqueous™ kit (Ambion, Austin, Tex.) according to manufacture's instructions. RNA samples were then treated with DNA-free kit (Ambion, Austin Tex.). 25 nanograms of total RNA from each sample were amplified using OneStep RT-PCR kit (Qiagen, Valencia, Calif.) according to the manufacture's instructions. PCR Primers were synthesized by Integrated DNA Technologies (Coralville, Iowa). Each RT-PCR reaction contained 30 pmol of each primer of MUC1 or 10 pmol of each primer of glyceraldehyde-3-phosphate dehydrogenase (GAPDH). Each PCR cycle consisted of denaturing for 50 seconds at 94° C., annealing for 1 minutes at 58° C., elongation for 1 minute at 72° C. The PCR products were resolved by electrophoresis in 1% agarose gel and stained with ethidium bromide. Kodak Gel logic 100 imaging system was used to take gel pictures and analyze product band density.
All sample densities were normalized against GAPDH.

HaCaT cells = experiment: Intracellular Ca2+ mobilization (FLIPR) in HaCaT cells; type: cell-based; conditions: for Intracellular calcium mobilization (in words): SLIGRL 4-40 μM, LIGR and scrambled peptide at concentrations as high as 800 μM
Protocol: HaCaT cells were seeded in a black-wall 96-well plate at about 20,000 cells/100 μl/well and grown overnight in culture medium prior to the experiment. On the day of the experiment, cells were loaded with 100 μl of Calcium Plus assay reagent component A (FLEXstation calcium Plus Assay Kit, Molecular Devices, Sunnyvale, Calif.) prepared in Hanks' Balanced Salt Solution (HBSS, Mediatech, Inc., Herndon, Va.) for 30 minutes according to the manufacturer's protocol. After loading the cells, SLIGRL, LIGR and ISSLRG (at 5× concentration in 50 μl) were added to all wells (final volume 250 μl/well), and intracellular Ca^2+ levels were subsequently assayed using the FLIPR system (Molecular Devices, Sunnyvale, Calif.) to simultaneously monitor fluorescence in all wells (Wavelength−excitation=488 nm, Wavelength−emission=510 nm) according to the manufacture's protocol. The fluorescence intensity was captured every 3 seconds for the first 3 minutes after the addition of the peptides. The results of this study are shown in Table 6, in fluorescence units.

Cyclooxygenase-2 (COX-2) = experiment: COX-2 expression (RT-PCR) in skin of topically treated mice; type: in vivo, SKH1 hairless mice; conditions: for COX-2:GAPDH: 100 μM in 70:30 ethanol:propylene glycol, once daily for 2 weeks (M-F), skin RT-PCR
Protocol: SKH1 hairless mice, were purchased from Charles River (Kingston, N.Y.), and were housed in appropriately sized cages in an environmentally controlled room with a 12-hour light—12-hour dark photoperiod and supplied with food and water ad libitum. Mice were either untreated, or treated with LIGR or SLIGRL (From California Research Peptide Research Inc. Napa, Calif.), at 100 μM, in 70:30 ethanol: propylene glycol vehicle, once daily for 2 weeks (M-F, no treatment on weekends). Following ten days of treatment, mice were sacrificed and skin samples were processed for RNA extraction and RT-PCR. The treated skins were analyzed for the expression of Cyclooxygenase-2 (COX-2), a known inflammatory mediator. Total RNA (25 ng) from each sample was subjected to one step RT-PCR reaction using OneStep RT-PCR Kit (QIAGEN®, Valencia, Calif.) according to manufacturer's instructions. The reverse transcription was carried out for 30 minutes at 50° C. and a hot start of 15 minutes at 95° C. was then included to activate HotStarTaq™ DNA polymerase in the reaction mix. PCR Primers were synthesized by Integrated DNA Technologies (Coralville, Iowa). Each RT-PCR reaction contained 30 pmol of each primer of COX-2 or 10 pmol of each primer of GAPDH. Each PCR cycle consisted of denaturing for 50 seconds at 94° C., annealing for 1 minute at 58° C., elongation for 1 minute at 72° C. The PCR products were resolved by electrophoresis in 1% agarose gel and stained with ethidium bromide. Kodak Gel logic 100 imaging system was used to take gel pictures and analyze product band density.
The results of this study are shown in Table 5, as expressed in the ratio of COX-2 expression to the expression of the housekeeping gene GAPDH. […] This in vivo study further supports that LIGR is not a classic PAR-2 activator, and is not inducing pro-inflammatory mediators under physiological conditions.

COX-2:GAPDH (Cyclooxygenase-2 (COX-2))	Substance	Tear secretion (in words) (PAR-2)	Increase in the expression and secretion of several inflammatory mediators [1]	Fold change in the secretion of inflammatory mediators: IL-6 [1]	Fold change in the secretion of inflammatory mediators: IL-8 [1]	Fold change in the secretion of inflammatory mediators: PGE2 [1]	Fold change in the secretion of inflammatory mediators: PGF2α [1]	Fold Change (MUC1:GAPDH) (Mucin 1 (MUC1))	Fluorescence intensity (HaCaT cells; 4 μM peptide) [fluorescence units]	Fluorescence intensity (HaCaT cells; 8 μM peptide) [fluorescence units]	Fluorescence intensity (HaCaT cells; 20 μM peptide) [fluorescence units]	Fluorescence intensity (HaCaT cells; 40 μM peptide) [fluorescence units]	Intracellular calcium mobilization (in words) (HaCaT cells)	COX-2 expression in vivo (in words) (Cyclooxygenase-2 (COX-2); 100 μM topical, mouse skin)	Induction of inflammatory mediators (in words) [1]	Fluorescence intensity (HaCaT cells; 400 μM peptide) [fluorescence units]	Induction of expression of the MUC1 gene (in words) (Mucin 1 (MUC1); corneal epithelial equivalents)	Fluorescence intensity (HaCaT cells; 200 μM peptide) [fluorescence units]	Fluorescence intensity (HaCaT cells; 800 μM peptide) [fluorescence units]
1.168	SLIGRL-NH2	induce Tear Secretion	1.5-3 times	2.7	3.0	2.3	1.5	0.7	1386.9	1904.015	2003.095	2842.92	dose dependent increase	increased					
	ISLLRG (ISSLRG; SYTHETIC PEPTIDE) [the control, scrambled peptide]			1.1	1.0	0.8	1.0					535.54	do not induce intracellular calcium mobilization		did not induce these inflammatory mediators	744.95			
0.275	H2-Leu-Ile-Gly-Arg-NH2 (H-LIGR-NH2)			1.2	1.0	0.8	0.9	2.1				628.27	does not induce calcium mobilization; also recorded: do not induce intracellular calcium mobilization		does not induce the secretion of inflammatory mediators; also recorded: did not induce these inflammatory mediators		induces the expression of the mucin1 gene; also recorded: induced the expression of the MUC1 gene	424.315	556.105
